Test results taken from patent US8802597B2, “Herbicidal pyrimidines” (E I du Pont de Nemours and Company, priority 2003, dated 2014).

Experiments:
Assay type in all cases: in vivo
[1] = tested on: Surinam grass (Brachiaria decumbens); experiment: Test C pre/postemergence; details: for Surinam Grass plant response rating: scale 0 to 100 (0 no effect, 100 complete control)
Summary of the method: (§1)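 Greenhouse pot test: seeds treated preemergence, or plants at 2–18 cm (1- to 4-leaf stage) treated postemergence, with compound in non-phytotoxic solvent plus surfactant. Visual rating versus untreated controls after 12–14 days, scale 0 (no effect) to 100 (complete control); dash means not tested.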

[2] = tested on: common (oilseed) sunflower (Helianthus annuus); experiment: Test C pre/postemergence; details: Preemergence
Summary of the method: as §1

[3] = tested on: common ragweed (Ambrosia elatior); experiment: Test C pre/postemergence; details: for Ragweed plant response rating: scale 0 to 100 (0 no effect, 100 complete control)
Summary of the method: as §1

[4] = tested on: giant foxtail (Setaria faberii); experiment: Test C pre/postemergence; details: for Foxtail, Giant plant response rating: scale 0 to 100 (0 no effect, 100 complete control)
Summary of the method: as §1

[5] = tested on: johnsongrass (Sorghum halepense); experiment: Test C pre/postemergence; details: for Johnsongrass plant response rating: scale 0 to 100 (0 no effect, 100 complete control)
Summary of the method: as §1

kochia (Kochia scoparia) = experiment: Test C pre/postemergence; details: for Kochia plant response rating: scale 0 to 100 (0 no effect, 100 complete control)
Summary of the method: as §1

[6] = tested on: morningglory (Ipomoea coccinea); experiment: Test C pre/postemergence; details: for Morningglory plant response rating: scale 0 to 100 (0 no effect, 100 complete control)
Summary of the method: as §1

[7] = tested on: pigweed (Amaranthus retroflexus); experiment: Test C pre/postemergence; details: for Pigweed plant response rating: scale 0 to 100 (0 no effect, 100 complete control)
Summary of the method: as §1

soybean (Glycine max) = experiment: Test C pre/postemergence; details: for Soybean plant response rating: scale 0 to 100 (0 no effect, 100 complete control)
Summary of the method: as §1

[8] = tested on: woolly cupgrass (Eriochloa villosa); experiment: Test C pre/postemergence; details: for Cupgrass, Woolly plant response rating: scale 0 to 100 (0 no effect, 100 complete control)
Summary of the method: as §1

[9] = tested on: yellow nutsedge (Cyperus esculentus); experiment: Test C pre/postemergence; details: for Nutsedge, Yellow plant response rating: scale 0 to 100 (0 no effect, 100 complete control)
Summary of the method: as §1

[10] = tested on: chickweed (Stellaria media); experiment: Test C postemergence; details: for Plant response rating, Chickweed: scale 0 to 100
Summary of the method: as §1

[11] = Postemergence, 250 g ai/ha, scale 0 to 100
[12] = Preemergence, 31 g ai/ha, scale 0 to 100, 0 no effect, 100 complete control
[13] = Preemergence, 62 g ai/ha, scale 0 to 100, 0 no effect, 100 complete control
[14] = Preemergence, 125 g ai/ha, scale 0 to 100
[15] = Preemergence, 250 g ai/ha, scale 0 to 100

With `CC(C)COC(=O)c1nc(C2CC2)nc(N)c1Br` [Compound 17] the “Plant response rating (scale of 0 to 100), Surinam Grass” value ([1]; Postemergence, 31 g ai/ha) was 0, the “Surinam Grass plant response rating” value ([1]; Postemergence, 62 g ai/ha) was 0 and the “Surinam Grass plant response rating” value ([1]; Postemergence, 125 g ai/ha) was 0. The “Plant response rating, Surinam Grass” value [1, 11] was 0, the “Plant response rating, Surinam Grass” value [1, 12] was 0 and the “Plant response rating, Surinam Grass” value [1, 13] was 0. For the same molecule, the “Plant response rating, Surinam Grass” value [1, 14] was 0, the “Plant response rating, Surinam Grass” value [1, 15] was 0 and the “Plant response rating, Sunflower” value ([2]; 31 g ai/ha, scale 0 to 100, 0 no effect, 100 complete control) was 60. For the same molecule, the “Plant response rating, Sunflower” value ([2]; 62 g ai/ha, scale 0 to 100, 0 no effect, 100 complete control) was 95, the “Plant response rating, Sunflower” value ([2]; 125 g ai/ha, scale 0 to 100) was 100 and the “Plant response rating, Sunflower” value ([2]; 250 g ai/ha, scale 0 to 100) was 100. The “Plant response rating (scale of 0 to 100), Ragweed” value ([3]; Postemergence, 31 g ai/ha) was 65, the “Ragweed plant response rating” value ([3]; Postemergence, 62 g ai/ha) was 85 and the “Ragweed plant response rating” value ([3]; Postemergence, 125 g ai/ha) was 95. The “Plant response rating, Ragweed” value [3, 11] was 95, the “Plant response rating, Ragweed” value [3, 12] was 70 and the “Plant response rating, Ragweed” value [3, 13] was 80. The “Plant response rating, Ragweed” value [3, 14] was 95, the “Plant response rating, Ragweed” value [3, 15] was 100 and the “Plant response rating (scale of 0 to 100), Foxtail, Giant” value ([4]; Postemergence, 31 g ai/ha) was 0. For the same molecule, the “Foxtail, Giant plant response rating” value ([4]; Postemergence, 62 g ai/ha) was 0, the “Foxtail, Giant plant response rating” value ([4]; Postemergence, 125 g ai/ha) was 0 and the “Plant response rating, Foxtail, Giant” value [4, 11] was 35. The “Plant response rating, Foxtail, Giant” value [4, 12] was 0, the “Plant response rating, Foxtail, Giant” value [4, 13] was 0 and the “Plant response rating, Foxtail, Giant” value [4, 14] was 20. For the same molecule, the “Plant response rating, Foxtail, Giant” value [4, 15] was 75, the “Plant response rating (scale of 0 to 100), Johnsongrass” value ([5]; Postemergence, 31 g ai/ha) was 0 and the “Johnsongrass plant response rating” value ([5]; Postemergence, 62 g ai/ha) was 0. The “Johnsongrass plant response rating” value ([5]; Postemergence, 125 g ai/ha) was 40, the “Plant response rating, Johnsongrass” value [5, 11] was 60 and the “Plant response rating, Johnsongrass” value [5, 12] was 0. The “Plant response rating, Johnsongrass” value [5, 13] was 0, the “Plant response rating, Johnsongrass” value [5, 14] was 55 and the “Plant response rating, Johnsongrass” value [5, 15] was 75. The “Plant response rating (scale of 0 to 100), Kochia” value (kochia (Kochia scoparia); Postemergence, 31 g ai/ha) was 100, the “Kochia plant response rating” value (kochia (Kochia scoparia); Postemergence, 62 g ai/ha) was 100 and the “Kochia plant response rating” value (kochia (Kochia scoparia); Postemergence, 125 g ai/ha) was 100. The “Plant response rating, Kochia” value (kochia (Kochia scoparia); [11]) was 100, the “Plant response rating, Kochia” value (kochia (Kochia scoparia); [12]) was 0 and the “Plant response rating, Kochia” value (kochia (Kochia scoparia); [13]) was 0. The “Plant response rating, Kochia” value (kochia (Kochia scoparia); [14]) was 25, the “Plant response rating, Kochia” value (kochia (Kochia scoparia); [15]) was 85 and the “Plant response rating (scale of 0 to 100), Morningglory” value ([6]; Postemergence, 31 g ai/ha) was 95. For the same molecule, the “Morningglory plant response rating” value ([6]; Postemergence, 62 g ai/ha) was 95, the “Morningglory plant response rating” value ([6]; Postemergence, 125 g ai/ha) was 100 and the “Plant response rating, Morningglory” value [6, 11] was 100. For the same molecule, the “Plant response rating, Morningglory” value [6, 12] was 70, the “Plant response rating, Morningglory” value [6, 13] was 95 and the “Plant response rating, Morningglory” value [6, 14] was 100. The “Plant response rating, Morningglory” value [6, 15] was 100, the “Plant response rating (scale of 0 to 100), Pigweed” value ([7]; Postemergence, 31 g ai/ha) was 45 and the “Pigweed plant response rating” value ([7]; Postemergence, 62 g ai/ha) was 65. The “Pigweed plant response rating” value ([7]; Postemergence, 125 g ai/ha) was 75, the “Plant response rating, Pigweed” value [7, 11] was 95 and the “Plant response rating, Pigweed” value [7, 12] was 95. The “Plant response rating, Pigweed” value [7, 13] was 100, the “Plant response rating, Pigweed” value [7, 14] was 100 and the “Plant response rating, Pigweed” value [7, 15] was 100. For the same molecule, the “Plant response rating (scale of 0 to 100), Soybean” value (soybean (Glycine max); Postemergence, 31 g ai/ha) was 85, the “Soybean plant response rating” value (soybean (Glycine max); Postemergence, 62 g ai/ha) was 95 and the “Soybean plant response rating” value (soybean (Glycine max); Postemergence, 125 g ai/ha) was 100. The “Plant response rating, Soybean” value (soybean (Glycine max); [11]) was 100, the “Plant response rating, Soybean” value (soybean (Glycine max); [12]) was 70 and the “Plant response rating, Soybean” value (soybean (Glycine max); [13]) was 90. The “Plant response rating, Soybean” value (soybean (Glycine max); [14]) was 95, the “Plant response rating, Soybean” value (soybean (Glycine max); [15]) was 100 and the “Plant response rating (scale of 0 to 100), Cupgrass, Woolly” value ([8]; Postemergence, 31 g ai/ha) was 0. For the same molecule, the “Cupgrass, Woolly plant response rating” value ([8]; Postemergence, 62 g ai/ha) was 0, the “Cupgrass, Woolly plant response rating” value ([8]; Postemergence, 125 g ai/ha) was 0 and the “Plant response rating, Cupgrass, Woolly” value [8, 11] was 20. The “Plant response rating, Cupgrass, Woolly” value [8, 12] was 0, the “Plant response rating, Cupgrass, Woolly” value [8, 13] was 0 and the “Plant response rating, Cupgrass, Woolly” value [8, 14] was 20. The “Plant response rating, Cupgrass, Woolly” value [8, 15] was 85, the “Plant response rating (scale of 0 to 100), Nutsedge, Yellow” value ([9]; Postemergence, 31 g ai/ha) was 0 and the “Nutsedge, Yellow plant response rating” value ([9]; Postemergence, 62 g ai/ha) was 0. For the same molecule, the “Nutsedge, Yellow plant response rating” value ([9]; Postemergence, 125 g ai/ha) was 0, the “Plant response rating, Nutsedge, Yellow” value [9, 11] was 0 and the “Plant response rating, Nutsedge, Yellow” value [9, 12] was 0. The “Plant response rating, Nutsedge, Yellow” value [9, 13] was 0, the “Plant response rating, Nutsedge, Yellow” value [9, 14] was 0 and the “Plant response rating, Nutsedge, Yellow” value [9, 15] was 0. For the same molecule, the “Plant response rating (scale of 0 to 100), Chickweed” value ([10]; 31 g ai/ha) was 0, the “Chickweed plant response rating” value ([10]; 62 g ai/ha, scale 0 to 100 (0 no effect, 100 complete control)) was 0 and the “Plant response rating, Chickweed” value ([10]; 125 g ai/ha) was 55. For the same molecule, the “Plant response rating, Chickweed” value ([10]; 250 g ai/ha) was 85.
